According to patent publication US7052908B2, “Androgen receptor coactivators” (University of Rochester, priority 1998, dated 2006):
Numbering of substitutions follows the chain as printed.

Legend:
wtAR = molecular target: T1, wtAR (Homo sapiens, UniProt P10275); test: AR transactivation, transient transfection with MMTV-CAT reporter in DU145 cells; conditions: for AR transcriptional activity induction: 10 nM E2 or 1 μM HF
T1 sequence (P10275 1-920): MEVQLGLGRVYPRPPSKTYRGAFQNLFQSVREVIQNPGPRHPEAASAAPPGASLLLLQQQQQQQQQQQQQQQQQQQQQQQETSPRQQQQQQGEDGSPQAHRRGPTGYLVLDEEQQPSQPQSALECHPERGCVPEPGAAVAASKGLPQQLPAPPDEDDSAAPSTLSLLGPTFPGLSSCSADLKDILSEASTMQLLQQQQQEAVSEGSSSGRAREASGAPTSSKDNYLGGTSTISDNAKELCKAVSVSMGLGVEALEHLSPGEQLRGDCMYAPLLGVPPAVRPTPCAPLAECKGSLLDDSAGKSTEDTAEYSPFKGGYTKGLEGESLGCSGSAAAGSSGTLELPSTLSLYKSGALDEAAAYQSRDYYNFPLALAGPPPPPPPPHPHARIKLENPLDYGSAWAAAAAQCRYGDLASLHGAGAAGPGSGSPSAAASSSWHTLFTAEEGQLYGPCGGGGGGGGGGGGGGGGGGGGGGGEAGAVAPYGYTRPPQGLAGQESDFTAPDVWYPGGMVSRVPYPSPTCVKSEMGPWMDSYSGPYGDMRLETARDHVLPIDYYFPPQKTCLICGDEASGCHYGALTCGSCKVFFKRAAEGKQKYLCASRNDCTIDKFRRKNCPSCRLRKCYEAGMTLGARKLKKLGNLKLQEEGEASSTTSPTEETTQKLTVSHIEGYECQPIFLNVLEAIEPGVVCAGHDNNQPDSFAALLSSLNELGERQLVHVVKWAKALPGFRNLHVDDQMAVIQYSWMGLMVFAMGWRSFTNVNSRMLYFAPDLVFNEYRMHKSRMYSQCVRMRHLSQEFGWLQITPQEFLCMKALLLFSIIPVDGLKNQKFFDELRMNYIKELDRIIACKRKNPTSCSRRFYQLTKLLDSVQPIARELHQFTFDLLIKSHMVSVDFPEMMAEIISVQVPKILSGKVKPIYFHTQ

AR [1] = test: Mammalian two-hybrid assay with CAT reporter in DU145 cells; format: cell-based, human; conditions: DU145; 10 nM DHT, or E2 or HF
Source text: The mammalian two-hybrid system employed was essentially the protocol of Clontech (California), with the following modifications. […] The hinge and LBD of wtAR were then inserted into pGAL0. Similarly, the VP16 activation domain was fused to pCMX under the control of a CMV promoter, and designated pCMX-VP16 (provided by Dr. R. M. Evan).

mARe708k [2] = molecular target: T2, mARe708k (Homo sapiens, UniProt P10275, E710K); test: AR transactivation, transient transfection CAT reporter assay, mutant AR; format: cell-based
T2 construct: expressed in transfected cells; host or cells: DU145
T2 sequence (P10275 1-920 E710K): T1 sequence (P10275 1-920) with E710K

mARe708k [3] = molecular target: T3, mARe708k (Homo sapiens, UniProt P10275); test: as above; format: cell-based; conditions: mARe708k cotransfected with Rb and/or ARA70; 10 nM E2 or 1 μM HF
T3 construct: expressed in transfected cells; host or cells: DU145
T3 sequence (P10275 1-920 E710K): T1 sequence (P10275 1-920) with E710K

mARt877s = test: as above; format: cell-based, human
AR [4] = molecular target: T4, AR (Homo sapiens, UniProt P10275); test: AR-activated transcription (CAT) in transfected H1299 cells; format: cell-based; parameters: expressed in transfected cells; host or cells: DU145 (A1), NCI H1299 (A7), PC3 (A8); conditions: H1299 cells with endogenous ARA54
T4 sequence (P10275 1-920): T1 sequence (P10275 1-920)
Source text: Since the C-terminal region of ARA54 (a.a. 361–471 of SEQ ID NO:2) isolated from prostate cDNA library has shown to be sufficient to interact with AR in yeast two-hybrid assays, we further investigated whether it could squelch the effect of ARA54 on AR-activated transcription in H1299 cells, which contain endogenous ARA54. The C-terminal region of ARA54 inhibits AR-mediated transcription by up to 70%; coexpression of exogenous full-length ARA54 reverses this squelching effect in a dose-dependent manner.
Human small lung carcinoma H1299 cell line, which has no endogenous AR protein, were transfected with AR and ARA24/Ran. Because ARA24/Ran is one of the most abundant and ubiquitously expressed proteins in various cells, both sense and antisense ARA24/Ran mammalian expression plasmids were tested.

Question: What does the source list for `CC(C)(O)C(=O)Nc1ccc([N+](=O)[O-])c(C(F)(F)F)c1` [HF, hydroxyflutamide, reference compound]?
Answer: response of wtAR transactivation to ligand (wtAR; E2 10^-9-10^-7 M or HF 10^-7-10^-5 M, in the presence or absence of ARA54): responded only marginally; AR transcriptional activity induction (wtAR; wild type AR cotransfected with Rb and ARA70): 12 fold; AR transcriptional activity induction (wtAR; wild type AR cotransfected with Rb or ARA70): 3–4 fold; response of wtAR transcriptional activity to ligand (wtAR; without ARA55, only at higher concentrations (10^-7 M for E2, 10^-5 M for HF)): responded marginally; CAT activity with GAL0AR and VP16-ARA55 cotransfected (AR [1]): not induced; agonistic activity toward ARe708k (mARe708k [2]): no agonistic activity; AR transcriptional activity induction (mARe708k [3]): almost no induction; response of Art877a transactivation to ligand (mARt877s; absence of ARA54, E2 10^-9-10^-7 M, HF 10^-7-10^-5 M): responded; response of LNCaP mAR to ligand compared to wtAR (mARt877s; compared to wtAR): responded much better

B1: C-terminal region of ARA54: a.a. 361–471 of ARA54, dominant negative inhibitor of AR-mediated transcription (protein)
chain: ANFNQSGNIADSSLSFTFTNSSNGPNLITTQTNSQALSQPIASSNVHDNFMNNEITASKIDDGNNSKPLSPGWTDQTAYNAFGITTGMFNTTTMDDVYNYLFDDEDTPPNPKKERNEYLQADEANKRLLDQRYGKRVIQKALEEMESKEWLEKNSKSCPCCGTPIEKLDGCNKMTCTGCMQYFCWICMGSLSRANPYKHFNDPGSPCFNRLFYAVDVDDDIWEDE
Question: For B1, which “inhibition of AR-mediated transcription” value (AR [4]) is on record?
Answer: Its value is “up to 70%”.
